Results as given in US9732119B2, “Immunomodulators” (BRISTOL-MYERS SQUIBB COMPANY, priority 2014, dated 2017).
Positions of bridges follow the written chain, without caps; N, C: chain ends. Non-standard residues stand in square brackets, D forms with d. Residues, ends and D or L forms follow the SMILES beside them. Trp(1-CH2COOH) = N[C@@H](Cc1cn(CC(=O)O)c2ccccc12)C(=O)O; Phe(4-Cl) = N[C@@H](Cc1ccc(Cl)cc1)C(=O)O; Hyp = O=C(O)[C@@H]1C[C@@H](O)CN1; Aad = N[C@@H](CCCC(=O)O)C(=O)O; NMeNle = CCCC[C@H](NC)C(=O)O; dOrn = NCCC[C@@H](N)C(=O)O; Pip = O=C(O)[C@@H]1CCCCN1; NMeA = CN[C@@H](C)C(=O)O; Orn = NCCC[C@H](N)C(=O)O; Dab = NCC[C@H](N)C(=O)O; Dap = NC[C@H](N)C(=O)O; AEA = NCCOCC(=O)O; Ava = NCCCCC(=O)O; βAla = NCCC(=O)O

Target: T1, PD-1-Ig binding to PD-L1-TVMV-His (PD-L1-His) (Homo sapiens, UniProt Q9NZQ7)
T1 construct: hPDL1(19-239)-TVMV-His; made in house; host or cells: HEK293T cells
T1 sequence (Q9NZQ7 with tags, fused parts or gaps): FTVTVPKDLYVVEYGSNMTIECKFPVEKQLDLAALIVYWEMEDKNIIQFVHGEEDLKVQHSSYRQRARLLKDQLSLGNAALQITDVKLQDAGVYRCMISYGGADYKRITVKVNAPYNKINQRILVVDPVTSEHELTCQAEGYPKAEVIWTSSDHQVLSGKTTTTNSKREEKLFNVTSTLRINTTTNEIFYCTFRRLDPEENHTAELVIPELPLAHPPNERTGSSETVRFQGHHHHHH
Assay: PD-1/PD-L1 Homogenous Time-Resolved Fluorescence (HTRF) binding assay
Conditions: PD-1-Ig (20 nM) / PD-L1-His (10 nM); range classes
Source text: The ability of the macrocyclic peptides of the present disclosure to bind to PD-L1 was investigated using a PD-1/PD-L1 Homogenous Time-Resolved Fluorescence (HTRF) binding assay.
Homogenous Time-Resolved Fluorescence (HTRF) Assays of Binding of Soluble PD-1 to Soluble PD-L1. Soluble PD-1 and soluble PD-L1 refers to proteins with carboxyl-end truncations that remove the transmembrane-spanning regions and are fused to heterologous sequences, specifically the Fc portion of the human immunoglobuling G sequence (Ig) or the hexahistidine epitope tag (His). All binding studies were performed in an HTRF assay buffer consisting of dPBS supplemented with 0.1% (w/v) bovine serum albumin and 0.05% (v/v) Tween-20. For the PD-1-Ig/PD-L1-His binding assay, inhibitors were pre-incubated with PD-L1-His (10 nM final) for 15 m in 4 μl of assay buffer, followed by addition of PD-1-Ig (20 nM final) in 1 μl of assay buffer and further incubation for 15 m. PD-L1 fusion proteins from either human, cynomologous macaques, mouse, or other species were used. HTRF detection was achieved using europium crypate-labeled anti-Ig monoclonal antibody (1 nM final) and allophycocyanin (APC) labeled anti-His monoclonal antibody (20 nM final). Antibodies were diluted in HTRF detection buffer and 5 μl was dispensed on top of binding reaction. […] Additional binding assays were established between PD-1-Ig/PD-L2-His (20 and 5 nM, respectively), CD80-His/PD-L1-Ig (100 and 10 nM, respectively) and CD80-His/CTLA4-Ig (10 and 5 nM, respectively).
Recombinant Proteins. […] Human PD-L2-His (Sino Biologicals), CD80-His (Sino Biologicals), CTLA4-Ig (RnD Systems) were all obtained through commercial sources.

IC50 [nM]	SMILES
1 to 9.9	CCCC[C@H]1C(=O)N(C)[C@@H](CCCC)C(=O)N[C@@H](CC(C)C)C(=O)N[C@H](C(=O)NCC(N)=O)CCCC(=O)N[C@@H](Cc2ccc(O)cc2)C(=O)N(C)[C@@H](C)C(=O)N[C@@H](CC(N)=O)C(=O)N2CCC[C@H]2C(=O)N[C@@H](CN)C(=O)N[C@@H](CCC(=O)O)C(=O)N2C[C@H](O)C[C@H]2C(=O)N[C@@H](Cc2c[nH]c3ccccc23)C(=O)N[C@@H](CCN)C(=O)N[C@@H](Cc2cn(CC(=O)O)c3ccccc23)C(=O)N1C [Example 10507] (Y[NMeA]NP[Dap]E[Hyp]W[Dab][Trp(1-CH2COOH)][NMeNle][NMeNle]L[Aad]G-NH2; lactam N-14)
1 to 9.9	CCCC[C@H]1C(=O)N(C)[C@@H](CCCC)C(=O)N[C@@H](CC(C)C)C(=O)NCCC[C@@H](N)C(=O)N[C@@H](Cc2ccc(Cl)cc2)C(=O)N2CCCC[C@H]2C(=O)N[C@@H](CC(N)=O)C(=O)N2CCC[C@H]2C(=O)N[C@@H](CN)C(=O)N[C@@H](CCC(=O)O)C(=O)N2C[C@H](O)C[C@H]2C(=O)N[C@@H](Cc2c[nH]c3ccccc23)C(=O)N[C@@H](CCN)C(=O)N[C@@H](Cc2cn(CC(=O)O)c3ccccc23)C(=O)N1C [Example 10571] (H-[dOrn][Phe(4-Cl)][Pip]NP[Dap]E[Hyp]W[Dab][Trp(1-CH2COOH)][NMeNle][NMeNle]L; lactam 1-C)
10 to 99	CCCC[C@H]1C(=O)N(C)[C@@H](CCCC)C(=O)N[C@@H](CC(C)C)C(=O)NCCC[C@H](N)C(=O)N[C@@H](Cc2ccc(O)cc2)C(=O)N2CCCC[C@H]2C(=O)N[C@@H](CC(N)=O)C(=O)N2CCC[C@H]2C(=O)N[C@@H](CN)C(=O)N[C@@H](CC(C)C)C(=O)N2C[C@H](O)C[C@H]2C(=O)N[C@@H](Cc2c[nH]c3ccccc23)C(=O)N[C@@H](CCN)C(=O)N[C@@H](Cc2cn(CC(=O)O)c3ccccc23)C(=O)N1C [Example 10517] (H-[Orn]Y[Pip]NP[Dap]L[Hyp]W[Dab][Trp(1-CH2COOH)][NMeNle][NMeNle]L; lactam 1-C)
10 to 99	CCCC[C@H]1C(=O)N(C)[C@@H](CCCC)C(=O)N[C@@H](CC(C)C)C(=O)N[C@H](C(=O)NCC(N)=O)CNCC(=O)N[C@@H](Cc2ccc(O)cc2)C(=O)N(C)[C@@H](C)C(=O)N[C@@H](CC(N)=O)C(=O)N2CCC[C@H]2C(=O)N[C@@H](Cc2cnc[nH]2)C(=O)N[C@@H](CCC(N)=O)C(=O)N2C[C@H](O)C[C@H]2C(=O)N[C@@H](Cc2c[nH]c3ccccc23)C(=O)NCC(=O)N[C@@H](Cc2cn(CC(=O)O)c3ccccc23)C(=O)N1C [Example 10020]
10 to 99	CCCC[C@H]1C(=O)N(C)[C@@H](CCCC)C(=O)N[C@@H](CCC(=O)O)C(=O)N[C@H](C(=O)NCC(N)=O)CNCC(=O)N[C@@H](Cc2ccc(O)cc2)C(=O)N(C)[C@@H](C)C(=O)N[C@@H](CC(N)=O)C(=O)N2CCC[C@H]2C(=O)N[C@@H](CCC(N)=O)C(=O)N[C@@H](CCC(N)=O)C(=O)N2C[C@H](O)C[C@H]2C(=O)N[C@@H](Cc2c[nH]c3ccccc23)C(=O)N[C@@H](CC(N)=O)C(=O)N[C@@H](Cc2cn(CC(=O)O)c3ccccc23)C(=O)N1C [Example 9021]
1 to 9.9	CCCC[C@H]1C(=O)N(C)[C@@H](CCCC)C(=O)N[C@@H](CC(C)C)C(=O)NCCOCC(=O)N[C@@H](Cc2ccc(O)cc2)C(=O)N(C)[C@@H](C)C(=O)N[C@@H](CC(N)=O)C(=O)N2CCC[C@H]2C(=O)N[C@@H](CN)C(=O)N[C@@H](CC(C)C)C(=O)N2C[C@H](O)C[C@H]2C(=O)N[C@@H](Cc2c[nH]c3ccccc23)C(=O)N[C@@H](CCN)C(=O)N[C@@H](Cc2cn(CC(=O)O)c3ccccc23)C(=O)N1C [Example 10502] (cyclo([AEA]Y[NMeA]NP[Dap]L[Hyp]W[Dab][Trp(1-CH2COOH)][NMeNle][NMeNle]L))
1 to 9.9	CCCC[C@H]1C(=O)N(C)[C@@H](CCCC)C(=O)N[C@@H](CCC(=O)O)C(=O)N[C@H](C(N)=O)CNCC(=O)N[C@@H](Cc2ccc(F)cc2)C(=O)N2CCCC[C@H]2C(=O)N[C@@H](CC(N)=O)C(=O)N2CCC[C@H]2C(=O)N[C@@H](CCC(N)=O)C(=O)N[C@@H](CCC(=O)O)C(=O)N2C[C@H](O)C[C@H]2C(=O)N[C@@H](Cc2c[nH]c3ccccc23)C(=O)N[C@@H](CC(N)=O)C(=O)N[C@@H](Cc2cn(CC(=O)O)c3ccccc23)C(=O)N1C [Example 9047]
1 to 9.9	CCCC[C@H]1C(=O)N(C)[C@@H](CCCC)C(=O)N[C@@H](CC(C)C)C(=O)N[C@H](C(N)=O)CNCC(=O)N[C@@H](Cc2ccc(O)cc2)C(=O)N2CCCC[C@H]2C(=O)N[C@@H](CC(N)=O)C(=O)N2CCC[C@H]2C(=O)N[C@@H](Cc2c[nH]cn2)C(=O)N[C@@H](CC(=O)O)C(=O)N2C[C@H](O)C[C@H]2C(=O)N[C@@H](Cc2c[nH]c3ccccc23)C(=O)N[C@@H](C)C(=O)N[C@@H](Cc2cn(CC(=O)O)c3ccccc23)C(=O)N1C [Example 9049]
1 to 9.9	CCCC[C@H]1C(=O)N(C)[C@@H](CCCC)C(=O)N[C@@H](CC(C)C)C(=O)NCC(=O)NCC(=O)N[C@@H](Cc2ccc(O)cc2)C(=O)N(C)[C@@H](C)C(=O)N[C@@H](CC(N)=O)C(=O)N2CCC[C@H]2C(=O)N[C@@H](CN)C(=O)N[C@@H](CC(C)C)C(=O)N2C[C@H](O)C[C@H]2C(=O)N[C@@H](Cc2c[nH]c3ccccc23)C(=O)N[C@@H](CCN)C(=O)N[C@@H](Cc2c[nH]c3ccccc23)C(=O)N1C [Example 5001] (cyclo([Dab]W[NMeNle][NMeNle]LGGY[NMeA]NP[Dap]L[Hyp]W))
10 to 99	CCCC[C@H]1C(=O)N(C)[C@@H](CCCC)C(=O)N[C@@H](CC(C)C)C(=O)N[C@H](C(N)=O)COCC(=O)N[C@@H](Cc2ccc(C)cc2)C(=O)N2CCCC[C@H]2C(=O)N[C@@H](CC(N)=O)C(=O)N2CCC[C@H]2C(=O)N[C@@H](CN)C(=O)N[C@@H](CC(C)C)C(=O)N2C[C@H](O)C[C@H]2C(=O)N[C@@H](Cc2c[nH]c3ccccc23)C(=O)N[C@@H](CCN)C(=O)N[C@@H](Cc2cn(CC(=O)O)c3ccccc23)C(=O)N1C [Example 10527]
1 to 9.9	CCCC[C@H]1C(=O)N(C)[C@@H](CCCC)C(=O)N[C@@H](CC(C)C)C(=O)N[C@H](C(N)=O)COCC(=O)N[C@@H](Cc2ccc(F)cc2)C(=O)N2CCCC[C@H]2C(=O)N[C@@H](CC(N)=O)C(=O)N2CCC[C@H]2C(=O)N[C@@H](CN)C(=O)N[C@@H](CCC(=O)O)C(=O)N2C[C@H](O)C[C@H]2C(=O)N[C@@H](Cc2c[nH]c3ccccc23)C(=O)N[C@@H](CCN)C(=O)N[C@@H](Cc2cn(CC(=O)O)c3ccccc23)C(=O)N1C [Example 10531]
100 to 10000	CCCC[C@H]1C(=O)N(C)[C@@H](CCCC)C(=O)N[C@@H](CC(C)C)C(=O)NCCCCC(=O)N[C@@H](Cc2ccc(O)cc2)C(=O)N2CCCC[C@H]2C(=O)N[C@@H](CC(N)=O)C(=O)N2CCC[C@H]2C(=O)N[C@@H](CN)C(=O)N[C@@H](CC(C)C)C(=O)N2C[C@H](O)C[C@H]2C(=O)N[C@@H](Cc2c[nH]c3ccccc23)C(=O)N[C@@H](CCN)C(=O)N[C@@H](Cc2cn(CC(=O)O)c3ccccc23)C(=O)N1C [Example 10512] (cyclo([Ava]Y[Pip]NP[Dap]L[Hyp]W[Dab][Trp(1-CH2COOH)][NMeNle][NMeNle]L))
100 to 10000	CCCC[C@H]1C(=O)N(C)[C@@H](CCCC)C(=O)N[C@@H](CC(C)C)C(=O)NCC(=O)NCCC(=O)N[C@@H](Cc2ccc(O)cc2)C(=O)N(C)[C@@H](C)C(=O)N[C@@H](CC(N)=O)C(=O)N2CCC[C@H]2C(=O)N[C@@H](Cc2c[nH]cn2)C(=O)N[C@@H](CC(C)C)C(=O)N2C[C@H](O)C[C@H]2C(=O)N[C@@H](Cc2c[nH]c3ccccc23)C(=O)NCC(=O)N[C@@H](Cc2c[nH]c3ccccc23)C(=O)N1C [Example 5004] (cyclo(GW[NMeNle][NMeNle]LG[βAla]Y[NMeA]NPHL[Hyp]W))
1 to 9.9	CCCC[C@H]1C(=O)N(C)[C@@H](CCCC)C(=O)N[C@@H](CCC(=O)O)C(=O)N[C@H](C(N)=O)CNCC(=O)N[C@@H](Cc2ccc(F)cc2)C(=O)N2CCCC[C@H]2C(=O)N[C@@H](CC(N)=O)C(=O)N2CCC[C@H]2C(=O)N[C@@H](Cc2c[nH]cn2)C(=O)N[C@@H](CCC(N)=O)C(=O)N2C[C@H](O)C[C@H]2C(=O)N[C@@H](Cc2c[nH]c3ccccc23)C(=O)N[C@@H](C)C(=O)N[C@@H](Cc2cn(CC(=O)O)c3ccccc23)C(=O)N1C [Example 9059]
1 to 9.9	CCCC[C@H]1C(=O)N(C)[C@@H](CCCC)C(=O)N[C@@H](CC(C)C)C(=O)N[C@H](C(=O)NCC(N)=O)CNCC(=O)N[C@@H](Cc2ccc(O)cc2)C(=O)N(C)[C@@H](C)C(=O)N[C@@H](CC(N)=O)C(=O)N2CCC[C@H]2C(=O)N[C@@H](Cc2cnc[nH]2)C(=O)N[C@@H](CC(C)C)C(=O)N2C[C@H](O)C[C@H]2C(=O)N[C@@H](Cc2c[nH]c3ccccc23)C(=O)N[C@@H](CO)C(=O)N[C@@H](Cc2cn(CC(=O)O)c3ccccc23)C(=O)N1C [Example 10007]
